Among the data in patent US20260184663A1, “INDENE COMPOUNDS, PHARMACEUTICAL COMPOSITIONS THEREOF, AND THEIR THERAPEUTIC APPLICATIONS” (NucMito Pharmaceuticals co. Ltd., priority 2022, published 2026) are inhibition values, retold here.

Read-outs that look alike come from different tables or passages of the source. Where only a bound is given, the exact number is not on record here.

Holding throughout (format): cell-based
For experiment [1], the system named is MDA-MB-231 (breast cancer). Kind of experiment: Antiproliferative activity (CCK-8 cell viability), MDA-MB-231. The conditions noted are these: Homo sapiens, 72 h, read-out: Antiproliferative activity in cancerous cells, MDA-MB-231 (inhibition of cell growth); for inhibition at 3.3 µM: Compound concentration: 3.3 μM; for inhibition at 10 µM: Compound concentration: 10 μM; for inhibition at 30 µM: Compound concentration: 30 μM. The method, boiled down: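 In this CCK-8 viability assay, MDA-MB-231 cells maintained in Dulbecco's modified Eagle's medium containing 10% fetal bovine serum were placed in 96-well plates (2,000-5,000 cells/well) and treated with compound for 72 h at 37° C. A 4 h incubation with 10 μL CCK-8 followed, plates were read at 450 nm, and viability was expressed against DMSO vehicle wells across replicates.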

The test system of another experiment is HepG2 (liver cancer). Kind of experiment: Antiproliferative activity (CCK-8 cell viability), HepG2. The conditions noted are these: Homo sapiens, 72 h, read-out: Antiproliferative activity in cancerous cells, HepG2 (inhibition of cell growth); for inhibition at 3.3 µM: Compound concentration: 3.3 μM; for inhibition at 10 µM: Compound concentration: 10 μM; for inhibition at 30 µM: Compound concentration: 30 μM. The method, boiled down: (§1)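 Cells were seeded at 2,000-5,000/well (HeLa in MEM, HepG2 and SW480 in DMEM, A549 in F-12K, all with 10% FBS) and treated with compound at 3.3, 10 or 30 μM for 72 h at 37° C. CCK-8 was added for 4 h, absorbance was read at 450 nm, and viability was expressed relative to DMSO-treated wells.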

A further experiment concerns SW480 (colon cancer). Kind of experiment: Antiproliferative activity (CCK-8 cell viability), SW480. The conditions noted are these: Homo sapiens, 72 h, read-out: Antiproliferative activity in cancerous cells, SW480 (inhibition of cell growth); for inhibition at 3.3 µM: Compound concentration: 3.3 μM; for inhibition at 10 µM: Compound concentration: 10 μM; for inhibition at 30 µM: Compound concentration: 30 μM. The method, boiled down:
as §1

Experiment [2] relates to B16F10 (malignant melanoma). Kind of experiment: Antiproliferative activity (CCK-8 cell viability), B16F10. The conditions noted are these: Mus musculus, 72 h, read-out: Antiproliferative activity in cancerous cells, B16F10 (inhibition of cell growth); for inhibition at 3.3 µM: B16-F10, Compound concentration: 3.3 μM; for inhibition at 10 µM: B16-F10, Compound concentration: 10 μM; for inhibition at 30 µM: B16-F10, Compound concentration: 30 μM. An outline of the steps: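 Attached B16F10 cells in 96-well plates were incubated with compound at 37° C for 72 h, followed by 10 μL CCK-8 reagent per well and a further 4 h incubation. A multi-well plate reader measured absorbance at 450 nm. Percent viability across replicates was calculated against DMSO vehicle-treated cells.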

Experiment [3] relates to A431 (epidermoid carcinoma). Description: Antiproliferative activity (CCK-8 cell viability), A431. The conditions noted are these: Homo sapiens, 72 h; for inhibition at 3.3 µM: A-431, Compound concentration: 3.3 μM; for inhibition at 10 µM: A-431, Compound concentration: 10 μM; for inhibition at 30 µM: A-431, Compound concentration: 30 μM. An outline of the steps:
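Cell viability of compound-treated A431 cells was measured with a Cell Counting Kit-8. Each well received 10 μL of CCK-8 after 72 h of compound exposure, followed by 4 h incubation at 37° C. and a 450 nm plate-reader measurement. Percent viability was calculated relative to DMSO controls across replicates.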

Experiment [4] relates to A549 (lung adenocarcinoma). Description: Antiproliferative activity (CCK-8 cell viability), A549. The conditions noted are these: Homo sapiens, 72 h, read-out: Antiproliferative activity in cancerous cells, A549 (inhibition of cell growth); for inhibition at 3.3 µM: Compound concentration: 3.3 μM; for inhibition at 10 µM: Compound concentration: 10 μM; for inhibition at 30 µM: Compound concentration: 30 μM. The method, boiled down:
as §1

A further experiment relates to HeLa (cervical cancer). Description: Antiproliferative activity (CCK-8 cell viability), HeLa. The conditions noted are these: Homo sapiens, 72 h, read-out: Antiproliferative activity in cancerous cells, HELA (inhibition of cell growth); for inhibition at 3.3 µM: Compound concentration: 3.3 μM; for inhibition at 10 µM: Compound concentration: 10 μM; for inhibition at 30 µM: Compound concentration: 30 μM. An outline of the steps: as §1

[5] abbreviates: read-out: Antiproliferative activity in cancerous cells, A431 (inhibition of cell growth).
[6] abbreviates: read-out: Antiproliferative activity in cancerous cells, A431.

In the case of `COc1ccc(S(=O)(=O)Cc2ccc(/C=C3\C(C)=C(CC(=O)O)c4cc(F)ccc43)cc2)cc1` [E20, (E)-2-(5-Fluoro-1-(4-(((4-methoxyphenyl)sulfonyl)methyl)benzylidene)-2-methyl-1H-inden-3-yl)acetic acid], the inhibition at 3.3 µM in experiment [1] is < 30%; in the experiment with HepG2 (liver cancer) it was 30 to 50%; in the experiment with SW480 (colon cancer), 30 to 50%; in experiment [2] it was < 30%; in experiment [3] (setting [5]), 30 to 50%; in experiment [4] it was < 30%. Further, in the experiment with HeLa (cervical cancer), the inhibition at 3.3 µM is < 30%. Also, the inhibition at 10 µM was 30 to 50% in experiment [1]; ≥ 50% with HepG2 (liver cancer); 30 to 50% with SW480 (colon cancer); 30 to 50% in experiment [2]; ≥ 50% in experiment [3] (setting [5]); 30 to 50% in experiment [4]. Moreover, the inhibition at 10 µM with HeLa (cervical cancer) is ≥ 50%. Besides, the inhibition at 30 µM (in experiment [1]; in the experiment on HepG2 (liver cancer); in the experiment on SW480 (colon cancer); in experiment [2]; in experiment [3] (setting [5]); in experiment [4]) was ≥ 50% in each case. Further, the inhibition at 30 µM in the experiment with HeLa (cervical cancer) is ≥ 50%.

In the case of `CCc1ccc2c(c1)C(CC(=O)O)=C(C)/C2=C/c1ccc(COc2ccc(F)c(F)c2)cc1` [B55, (Z)-2-(1-(4-((3,4-Difluorophenoxy)methyl)benzylidene)-5-ethyl-2-methyl-1H-inden-3-yl)acetic acid], the inhibition at 3.3 µM in experiment [1] was ≥ 50%; in the experiment on HepG2 (liver cancer), < 30%; with SW480 (colon cancer) it was < 30%; in experiment [2], ≥ 50%; in experiment [3] (setting [5]) it was 30 to 50%; in experiment [4] it was 30 to 50%. The inhibition at 3.3 µM in the experiment with HeLa (cervical cancer) was < 30%. In addition, the inhibition at 10 µM (in experiment [1]; with HepG2 (liver cancer); in the experiment on SW480 (colon cancer); in experiment [2]; in experiment [3] (setting [5]); in experiment [4]) was ≥ 50% throughout. Further, in the experiment on HeLa (cervical cancer), the inhibition at 10 µM is ≥ 50%.

In the case of `CC1=C(CC(=O)O)c2cc(F)ccc2/C1=C\c1ccc(CO)cc1` [D11, (Z)-2-(5-Fluoro-1-(4-(hydroxymethyl)benzylidene)-2-methyl-1H-inden-3-yl)acetic acid], the inhibition at 3.3 µM was ≥ 50% in experiment [1]; < 30% with HepG2 (liver cancer); < 30% in the experiment with SW480 (colon cancer); < 30% in experiment [2]; < 30% in experiment [3] (setting [5]); < 30% in experiment [4]. The inhibition at 3.3 µM with HeLa (cervical cancer) was < 30%. Besides, the inhibition at 10 µM was ≥ 50% in experiment [1]; < 30% in the experiment with HepG2 (liver cancer); ≥ 50% in the experiment with SW480 (colon cancer); < 30% in experiment [2]; ≥ 50% in experiment [3] (setting [5]); ≥ 50% in experiment [4]. In addition, the inhibition at 10 µM with HeLa (cervical cancer) was < 30%. Further, the inhibition at 30 µM in experiment [1] was ≥ 50%; with HepG2 (liver cancer) it was < 30%; in the experiment with SW480 (colon cancer) it was ≥ 50%; in experiment [2], < 30%; in experiment [3] (setting [5]) it was ≥ 50%; in experiment [4], ≥ 50%. The inhibition at 30 µM with HeLa (cervical cancer) is ≥ 50%.

For the molecule `CC1=C(CC(=O)O)c2cc(F)ccc2/C1=C/c1ccc(Oc2ccc(Cl)cc2)cc1` [E42, (E)-2-(1-(4-(4-Chlorophenoxy)benzylidene)-5-fluoro-2-methyl-1H-inden-3-yl)acetic acid], the inhibition at 3.3 µM in experiment [1] was < 30%; in the experiment on HepG2 (liver cancer) it was < 30%; in the experiment on SW480 (colon cancer) it was 30 to 50%; in experiment [2] it was < 30%; in experiment [3] (setting [5]) it was ≥ 50%; in experiment [4], < 30%. Further, the inhibition at 3.3 µM in the experiment on HeLa (cervical cancer) lay in the range of 30 to 50%. The inhibition at 10 µM in experiment [1] is < 30%; in the experiment with HepG2 (liver cancer), 30 to 50%; in the experiment on SW480 (colon cancer), ≥ 50%; in experiment [2], 30 to 50%; in experiment [3] (setting [5]), ≥ 50%; in experiment [4], 30 to 50%. For the same molecule, the inhibition at 10 µM with HeLa (cervical cancer) is ≥ 50%. In addition, the inhibition at 30 µM (in experiment [1]; in the experiment with HepG2 (liver cancer); in the experiment on SW480 (colon cancer); in experiment [2]; in experiment [3] (setting [5]); in experiment [4]) was ≥ 50% in each case. In the experiment with HeLa (cervical cancer), the inhibition at 30 µM was ≥ 50%.

As to `CC1=C(CC(=O)O)c2cc(F)ccc2/C1=C\c1cccc(C[S+]([O-])c2ccc(F)cc2)c1` (centres unmarked) [B50, (Z)-2-(5-Fluoro-1-(3-(((4-fluorophenyl)sulfinyl)methyl)benzylidene)-2-methyl-1H-inden-3-yl)acetic acid], the inhibition at 3.3 µM in experiment [1] was 30 to 50%; in the experiment on HepG2 (liver cancer) it was < 30%; in the experiment on SW480 (colon cancer), < 30%; in experiment [2], ≥ 50%; in experiment [3] (setting [5]), < 30%; in experiment [4] it was < 30%. Besides, the inhibition at 3.3 µM with HeLa (cervical cancer) is < 30%. Besides, the inhibition at 10 µM in experiment [1] is ≥ 50%; in the experiment on HepG2 (liver cancer) it was < 30%; in the experiment on SW480 (colon cancer), 30 to 50%; in experiment [2] it was ≥ 50%; in experiment [3] (setting [5]), < 30%; in experiment [4], < 30%. Moreover, the inhibition at 10 µM in the experiment with HeLa (cervical cancer) lay in the range of 30 to 50%. Also, the inhibition at 30 µM in experiment [3] (setting [6]) was in the range of 30 to 50%.

For `CC1=C(CC(=O)O)c2cc(F)ccc2/C1=C\c1ccc([S+]([O-])c2ccc(F)cc2)cc1` (centres unmarked) [C45, (Z)-2-(5-Fluoro-1-(4-((4-fluorophenyl)sulfinyl)benzylidene)-2-methyl-1H-inden-3-yl)acetic acid], the inhibition at 3.3 µM was 30 to 50% in experiment [1]; < 30% with HepG2 (liver cancer); < 30% with SW480 (colon cancer); ≥ 50% in experiment [2]; < 30% in experiment [3] (setting [5]); < 30% in experiment [4]. For the same molecule, the inhibition at 3.3 µM in the experiment with HeLa (cervical cancer) is < 30%. The inhibition at 10 µM was ≥ 50% in experiment [1]; < 30% in the experiment with HepG2 (liver cancer); 30 to 50% with SW480 (colon cancer); ≥ 50% in experiment [2]; < 30% in experiment [3] (setting [5]); 30 to 50% in experiment [4]. Also, the inhibition at 10 µM in the experiment on HeLa (cervical cancer) is ≥ 50%. Moreover, in experiment [3] (setting [6]), the inhibition at 30 µM was < 30%.
